This note sets out measurements from PubChem BioAssay AID434951 (Broad Institute, 2010).

SMILES strings stand for the structures. pEC50: −log10 of the molar value. Calls of active or inactive are those of the source.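 How the source made its calls: active means a fitted half-maximal concentration EC50 for the rise in nuclear signal no higher than ten times the top dose tested; inconclusive means flat fit with activity between 30% and 70%, or unusable fit; inactive means EC50 beyond ten times the top dose.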

Sequence of Hypoxia-inducible factor 1-alpha (Homo sapiens) (Q16665 whole entry, looked up): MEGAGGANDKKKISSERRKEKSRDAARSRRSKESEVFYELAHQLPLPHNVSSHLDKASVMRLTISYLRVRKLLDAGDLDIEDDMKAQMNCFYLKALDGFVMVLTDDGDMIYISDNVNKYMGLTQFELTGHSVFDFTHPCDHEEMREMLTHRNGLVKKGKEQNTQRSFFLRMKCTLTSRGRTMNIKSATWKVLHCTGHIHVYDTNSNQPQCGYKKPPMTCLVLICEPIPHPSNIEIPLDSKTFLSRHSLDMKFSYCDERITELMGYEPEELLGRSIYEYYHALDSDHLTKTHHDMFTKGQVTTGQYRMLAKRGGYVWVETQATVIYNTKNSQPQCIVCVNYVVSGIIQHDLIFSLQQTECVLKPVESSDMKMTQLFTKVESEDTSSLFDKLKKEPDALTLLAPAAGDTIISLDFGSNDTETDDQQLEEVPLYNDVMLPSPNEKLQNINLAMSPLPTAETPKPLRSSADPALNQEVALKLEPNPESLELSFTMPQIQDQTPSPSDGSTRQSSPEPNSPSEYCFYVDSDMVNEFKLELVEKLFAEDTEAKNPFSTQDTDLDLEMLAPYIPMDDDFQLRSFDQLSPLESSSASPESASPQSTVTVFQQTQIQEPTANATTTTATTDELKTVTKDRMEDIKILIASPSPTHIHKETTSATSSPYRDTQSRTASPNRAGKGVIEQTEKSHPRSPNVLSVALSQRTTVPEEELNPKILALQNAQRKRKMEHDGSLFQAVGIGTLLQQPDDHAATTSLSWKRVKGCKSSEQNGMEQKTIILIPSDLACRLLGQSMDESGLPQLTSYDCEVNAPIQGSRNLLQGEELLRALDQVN

This experiment has as its target Hypoxia-inducible factor 1-alpha (Homo sapiens) (UniProt Q16665). The experiment can be described thus: HIF pathway activation, GFP-HIF1alpha translocation – imaging, fluorescence, U2OS GFP-HIF1alpha, confirmation (AID 434951). The following applies: U2OS GFP-HIF1alpha nuclear intensity, high-content imaging.
Regarding `CCOC(=O)c1sc(N(Cc2ccccc2)C(=O)COC(=O)c2ccc(O)cc2)nc1C`, the negative-log EC50 (pEC50) (in general, the negative decadic logarithm of the EC50, by convention in mol/L) was 4.91. For `CCC(=O)NC(c1ccc(C)cc1)c1ccc2cccnc2c1O` (stereo unspecified), the pEC50 is 5.41. In the case of `CCN(CCCCCN(C)C)Cc1cc2ccccc2o1`, the EC50 – broadly, the concentration needed to bring the measured effect to its halfway point – was > 35 µM (inactive).

In the case of `O=C(N/N=C/c1c(O)ccc2ccccc12)c1ccc(Br)o1`, the pEC50 was 4.91. Take `O=C1CN(c2ccccc2)C(=O)N1`: the EC50 is > 35 µM (inactive). On to `Cc1ccc(/C(=N/Nc2ncnc3ccccc23)C(=O)O)cc1`, for which the EC50 was > 35 µM (inactive).

`CN(C)C=NC(=O)c1cn(-c2ccc(F)cc2)c(=O)c2ccccc12`: the EC50 was > 35 µM (inactive). Take `O=C(Nc1nc(NC(=O)c2ccco2)n(-c2ccccc2)n1)c1ccccc1`: the pEC50 is 4.88. With `[O-]/C(=C(\C(=S)Nc1cccc2ccccc12)[n+]1ccccc1)c1cccs1`, the EC50 is > 35 µM (inactive). On to `CC(=O)Nc1nc2ccccc2n1CCOc1ccccc1Cl`, for which the EC50 was > 35 µM (inactive). Same read-out and setting: next, `COc1ccc(CSCC(=O)Nc2ccc(S(=O)(=O)N3CCCCCC3)cc2)cc1`: > 35 µM (inactive). On the same count and under the same terms, next, `COc1ccc(N2C(=O)[C@@H]3C(c4cccnc4)=NO[C@@H]3C2=O)cc1`: > 35 µM (inactive). With `CCCCCN(C(=O)CCC(=O)OCC(=O)c1ccc(C(C)CC)cc1)c1c(N)n(CCCC)c(=O)[nH]c1=O` (stereo unspecified), the EC50 is > 35 µM (inactive). As for `Cc1sc2ncnc(Sc3nnnn3-c3ccc(Cl)cc3)c2c1C`, the EC50 was > 35 µM (inactive).

Consider `Cc1nc2nc3c(cn2n1)C(=O)CC(c1ccccc1)C3` (stereo unspecified), for which the EC50 was > 35 µM (inactive).

Take `CCCC(=O)NC(c1ccc(C(C)C)cc1)c1ccc2cccnc2c1O` (stereo unspecified): the negative logarithm of the EC50 (pEC50) is 5.68. For `O=c1oc2cc([N+](=O)[O-])ccc2nc1/C=C(\O)c1cccc(Br)c1`, the EC50 was > 35 µM (inactive). On the same count and under the same terms, next, `Cc1cccc(OCCn2cccc2/C=C2/C(=O)NC(=O)N(Cc3ccco3)C2=O)c1`: > 35 µM (inactive); `COc1cccc(CNC(=O)CCCn2c(=S)[nH]c3cc4c(cc3c2=O)OCO4)c1`: > 35 µM (inactive); `COc1cccc(C(=O)SC2=NCCS2)c1`: > 35 µM (inactive). Still for that read-out and setting: the same measure for `CC1(C)CC(=O)C(CC2C(=O)CC(C)(C)CC2=O)C(=O)C1`: > 35 µM (inactive). As to `O=C(CCc1ccccc1)N/N=C/c1cc(Br)ccc1O`, the pEC50 was 4.88. With `N/C(=N\OC(=O)Cc1cccs1)c1ccccc1`, the EC50 is > 35 µM (inactive). Regarding `O=C(NNC(=S)Nc1ccc(Cl)c(Cl)c1)c1ccccn1`, the pEC50 is 5.17.

On to `Cn1ncc(Cl)c1C(=O)Nc1nc2ccc(Cl)cc2s1`, for which the EC50 is > 35 µM (inactive). On the same count and under the same terms, next, `CCN1CN(CCc2ccccc2)CNC1=S`: > 35 µM (inactive); `COc1ccc(NC(=O)CSc2ncnc3[nH]ncc23)cc1`: > 35 µM (inactive); `CCOc1ccc(C(=O)NC(=S)Nc2cccc(NC(=O)c3ccco3)c2)cc1[N+](=O)[O-]`: > 35 µM (inactive). For `CSc1ccc(/C=N/Nc2ccc(Cl)c(C(=O)O)c2)cc1`, the EC50 was > 35 µM (inactive).

With `CCOC(=O)CCS(=O)(=O)c1nc(-c2ccccc2)cc(C(F)(F)F)n1`, the EC50 was > 35 µM (inactive). In the case of `NS(=O)(=O)c1ccc(NC(=O)c2ccc(CSc3ccccc3)o2)cc1`, the EC50 is > 35 µM (inactive). Still for that read-out and setting: next, `O=c1cc(CO)[nH]cc1OCc1ccccc1`: > 35 µM (inactive); `Cc1cccc(N2CCN(c3ccc(N4C(=O)CCCC4=O)cc3[N+](=O)[O-])CC2C)c1` (stereo unspecified): > 35 µM (inactive).

In the case of `Cc1c(C(=O)N2CCCCC2)c(S(=O)(=O)NCCc2ccc(Cl)cc2)c(C)n1C`, the EC50 is > 35 µM (inactive).

`O=C(C1CCCN(Cc2ccccc2F)C1)N1CCc2ccccc2C1` (stereo unspecified): the EC50 was > 35 µM (inactive). On the same count and under the same terms, next, `Cc1ccc(N2CC(=O)Nc3c(sc4nc(C)cc(C)c34)C2=O)cc1`: > 35 µM (inactive); `CC12CC3(C)CC(C)(C1)CC(C(=O)NCCc1ccc(S(N)(=O)=O)cc1)(C2)C3`: > 35 µM (inactive); `COCCNC(=O)c1sc2nc(-c3ccccc3)cn2c1C`: > 35 µM (inactive).

For the compound `O=C(N/N=C/c1c(O)ccc2ccccc12)c1[nH]ncc1Br`, the negative logarithm of the EC50 (pEC50) is 5.15.

For the compound `COc1ccc(/C=N/NC(=O)c2ccoc2C)cc1O`, the EC50 is > 35 µM (inactive).

Take `Cc1cccc(NC(=O)C2CC(=O)NC(Nc3nc4ccccc4s3)=N2)c1` (stereo unspecified): the EC50 was > 35 µM (inactive). Same read-out and setting: the same measure for `FC(F)(F)c1ccc2c(c1)NP(=S)(N1CCOCC1)c1nccn1-2` (stereo unspecified): > 35 µM (inactive). In the case of `Cc1cc(C)nc(N/N=C/c2cc(Br)ccc2O)n1`, the pEC50 is 5.08.

For the compound `CCn1nc(C(=O)OCC(=O)NC(C)C)c2ccccc2c1=O`, the EC50 was > 35 µM (inactive). Still for that read-out and setting: the same measure for `CCCOc1ccc(/C=N/NC(=O)CSc2ccccn2)cc1OC`: > 35 µM (inactive).

For `CCOc1ccc(-c2c(C(=O)N/N=C/c3cccnc3)nnn2-c2nonc2N)cc1`, the EC50 is > 35 µM (inactive). Consider `O=C(CN1C(=O)COc2ccc(Cl)cc21)Nc1ccc2c(c1)OCCO2`, for which the EC50 is > 35 µM (inactive).

Regarding `O=C(O)c1ccc(N2C(=O)CSC2=S)cc1`, the EC50 is > 35 µM (inactive). For `COc1cccc(/C=N/Nc2nc3ccccc3[nH]2)c1O`, the negative-log EC50 (pEC50) was 4.88. Consider `CCCCCCCCCS(=O)(=O)N/N=C/c1cccc([N+](=O)[O-])c1`, for which the EC50 is > 35 µM (inactive). As for `Cc1cccc2sc(NNC(=O)c3ccc(S(=O)(=O)N4CCc5ccccc5C4)cc3)nc12`, the pEC50 was 4.95. In the case of `O=C(/C=C/c1ccc2c(c1)OCO2)Nc1cccnc1`, the EC50 is > 35 µM (inactive). In the case of `Cc1cc(/C=N/N2CCN(C)CC2)c(C)n1-c1ccc(Cl)cc1`, the EC50 is > 35 µM (inactive). Same read-out and setting: next, `COc1ccccc1NC(=O)C1CCN(C(=O)c2ccc(C(C)(C)C)cc2)CC1`: > 35 µM (inactive); `CCOC(=O)/C(N=Nc1ccc(F)cc1)=C(/O)c1ccc([N+](=O)[O-])cc1`: > 35 µM (inactive). The same measure, in the same setting: next, `Cc1cccc(C(=O)OC(C)CN2CCCC2)c1` (stereo unspecified): > 35 µM (inactive). Same read-out and setting: the same measure for `CC1(C)CC(=O)C(C=NCCN2CCN(C(=S)Nc3cccc(Cl)c3)CC2)=C(O)C1`: > 35 µM (inactive); for `CCn1ccnc1C(O)c1ccccc1OC` (stereo unspecified): > 35 µM (inactive).

As for `Cn1nc(C(=O)NCCCN2CCCCC2)c2c1-c1ccccc1S(=O)(=O)C2`, the EC50 was > 35 µM (inactive).

On to `Oc1c(C(Nc2nc3ccccc3s2)c2ccco2)ccc2cccnc12` (stereo unspecified), for which the negative logarithm of the EC50 (pEC50) was 5.15. `Cc1ccc(-c2cc(N)n(-c3ccc(F)cc3)n2)cc1`: the EC50 was > 35 µM (inactive). For the compound `Cc1ccc(C(=O)Nc2cccc([N+](=O)[O-])c2)cc1S(=O)(=O)Nc1ccc(NC(=O)c2ccccc2)cc1`, the EC50 was > 35 µM (inactive). For the compound `CC(=O)Nc1ccc(S(=O)(=O)/N=C2\C(=O)c3ccccc3C([O-])=C2n2cc[n+](-c3ccccn3)c2)cc1`, the EC50 is > 35 µM (inactive).

For the compound `CCN(CC)c1ccc(/C=N/NC(=O)c2ccc3nc[nH]c3c2)c(O)c1`, the negative logarithm of the EC50 (pEC50) is 4.98. The same measure, in the same setting: the same measure for `O=C(N/N=C\c1cc(Cl)ccc1O)c1ccc(S(=O)(=O)N2CCCCC2)cc1`: 5.24. In the case of `Fc1ccc(CSc2ccc(-c3ccco3)nn2)cc1`, the EC50 is > 35 µM (inactive).

As to `O=C(COc1cccc2ccccc12)Nc1ccc(Cl)cc1C(=O)O`, the EC50 is > 35 µM (inactive).

Consider `O=C(Nc1ccccc1O)c1ccc(NS(=O)(=O)c2cccc3cccnc23)cc1`, for which the pEC50 is 5.17.

Consider `CC(=O)Nc1ccc2nc(NC(=O)COc3ccccc3C)sc2c1`, for which the EC50 is > 35 µM (inactive). Take `Oc1ccc(CCNc2c3ccccc3nc3ccccc23)cc1O`: the EC50 was > 35 µM (inactive). The same measure, in the same setting: next, `Cc1ccc(S(=O)(=O)N(C)CC(=O)NCCCn2ccnc2)cc1`: > 35 µM (inactive); `CC(C)C(=O)N1CCN(c2nc3ccc(Cl)cc3s2)CC1`: > 35 µM (inactive); `Cc1ccc(S(=O)(=O)Nc2cc(-c3ccc(Cl)cc3)nn2C)cc1`: > 35 µM (inactive). As to `CCN(CC)CCNCc1nc2ccccc2c(=O)n1-c1ccc(F)cc1`, the EC50 was > 35 µM (inactive). On the same count and under the same terms, next, `C1CCC2(CC1)C1=C(CCCC1)Nc1nnnn12`: > 35 µM (inactive); `Cc1ccccc1NC(=O)CN(C)S(=O)(=O)c1ccc(-c2ccc(=O)[nH]n2)s1`: > 35 µM (inactive). Still for that read-out and setting: next, `Cc1cccc2[nH]c(CN(C)C(=O)C3CCC(=O)N(C4CC4)C3)nc12` (stereo unspecified): > 35 µM (inactive). Turning to `O=C(N/N=C/c1cc([N+](=O)[O-])ccc1O)c1cccc2cc[nH]c12`, the pEC50 is 4.68.

Turning to `Cc1ccc(NC(=O)CSc2ncc3ccccn23)cc1`, the EC50 is > 35 µM (inactive). On the same count and under the same terms, the same measure for `CCc1ccc(C2C(=O)c3ccccc3C2=O)cc1`: > 35 µM (inactive); for `CCOc1ccc(NC(=O)CSc2nnc(Cn3cnc4ccccc43)n2C)cc1`: > 35 µM (inactive). Turning to `CCc1nc(SCC(=O)c2ccccc2)c2ccccc2n1`, the EC50 is > 35 µM (inactive). Consider `CC(C)[C@H](NC(=O)c1ccccc1Cl)C(=O)Nc1nc(-c2ccccn2)cs1`, for which the pEC50 was 5.18. As for `CC(=O)Nc1ccc(NC(=O)CCC(=O)OCC(=O)c2ccc(F)cc2)cc1`, the EC50 is > 35 µM (inactive). With `O=C(N/N=C\c1c(O)ccc2ccccc12)c1cncc(Br)c1`, the pEC50 was 5.19. Still for that read-out and setting: the same measure for `C/C(=N\Nc1ccc2nncn2n1)c1ccccn1`: 5.42. With `CCOC(=O)c1c(C)[nH]c(C)c1S(=O)(=O)N1c2ccccc2CC1C` (stereo unspecified), the EC50 was > 35 µM (inactive).

For `O=C(O)c1ccc2cc(-c3ccccc3)[nH]c2c1`, the EC50 was > 35 µM (inactive). Take `COc1ccc(CCNC(=O)c2cc(-c3ccco3)on2)cc1OC`: the negative logarithm of the EC50 (pEC50) is 4.97. On to `Cc1nc([N+](=O)[O-])c(Br)n1Cc1ccc(Cl)c(Cl)c1`, for which the EC50 is > 35 µM (inactive). Regarding `Nc1cc2c3c(cccc3c1)C(=O)N(CCN1CCCC1)C2=O`, the pEC50 was 4.78.
